Experimental data as given in paper doi:10.1101/2024.08.13.607785v1 (biorxiv, 2024).
pIC50: −log10 of the molar value. Where two headings read alike, the source gives them in different places.

Key:
Test in all cases: biochemical
[1] = target: Epithelial discoidin domain-containing receptor 1 ; DDR1 ; Q08345 (Homo sapiens, UniProt Q08345); parameters: species or system mixed lysate of K562, MV4-11, THP-1, NCI-H1155
[2] = target: Isoform 2 of Glycogen synthase kinase-3 beta ; GSK3B ; P49841-2 (Homo sapiens, UniProt P49841); parameters: species or system mixed lysate of K562, MV4-11, THP-1, NCI-H1155
Chain of Isoform 2 of Glycogen synthase kinase-3 beta ; GSK3B ; P49841-2 (P49841 whole entry, canonical isoform): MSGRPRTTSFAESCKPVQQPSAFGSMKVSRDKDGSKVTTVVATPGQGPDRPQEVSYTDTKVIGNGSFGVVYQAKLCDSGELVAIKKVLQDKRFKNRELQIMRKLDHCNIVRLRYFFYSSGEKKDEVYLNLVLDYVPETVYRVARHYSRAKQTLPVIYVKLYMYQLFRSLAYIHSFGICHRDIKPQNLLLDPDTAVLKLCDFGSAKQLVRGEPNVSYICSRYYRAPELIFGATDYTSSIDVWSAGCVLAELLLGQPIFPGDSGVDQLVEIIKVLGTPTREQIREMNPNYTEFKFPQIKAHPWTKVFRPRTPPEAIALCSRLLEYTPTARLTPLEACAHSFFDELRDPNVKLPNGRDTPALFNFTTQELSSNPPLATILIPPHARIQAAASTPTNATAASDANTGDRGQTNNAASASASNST

[3] = target: Calcium/calmodulin-dependent protein kinase kinase 1 ; CAMKK1 ; Q8N5S9 (Homo sapiens, UniProt Q8N5S9); parameters: species or system mixed lysate of K562, MV4-11, THP-1, NCI-H1155
Chain of Calcium/calmodulin-dependent protein kinase kinase 1 ; CAMKK1 ; Q8N5S9 (Q8N5S9 whole entry, one chain of several): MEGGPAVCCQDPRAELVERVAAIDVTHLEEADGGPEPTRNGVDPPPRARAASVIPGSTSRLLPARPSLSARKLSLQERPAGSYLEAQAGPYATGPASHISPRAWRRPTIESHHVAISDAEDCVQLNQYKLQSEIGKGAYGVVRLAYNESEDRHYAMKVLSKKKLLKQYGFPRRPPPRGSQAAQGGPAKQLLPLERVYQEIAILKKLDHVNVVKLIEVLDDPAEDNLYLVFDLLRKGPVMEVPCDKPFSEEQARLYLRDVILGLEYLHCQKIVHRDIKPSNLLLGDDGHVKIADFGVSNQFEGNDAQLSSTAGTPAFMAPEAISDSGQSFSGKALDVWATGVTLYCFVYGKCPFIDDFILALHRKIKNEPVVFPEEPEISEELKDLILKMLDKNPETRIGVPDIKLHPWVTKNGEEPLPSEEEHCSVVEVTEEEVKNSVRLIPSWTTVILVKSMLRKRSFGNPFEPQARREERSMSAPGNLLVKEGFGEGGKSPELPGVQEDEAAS

[4] = target: T1, Interleukin-1 receptor-associated kinase 3 ; IRAK3 ; Q9Y616 (Homo sapiens, UniProt Q9Y616); parameters: species or system mixed lysate of K562, MV4-11, THP-1, NCI-H1155
T1 sequence (Q9Y616 1-596): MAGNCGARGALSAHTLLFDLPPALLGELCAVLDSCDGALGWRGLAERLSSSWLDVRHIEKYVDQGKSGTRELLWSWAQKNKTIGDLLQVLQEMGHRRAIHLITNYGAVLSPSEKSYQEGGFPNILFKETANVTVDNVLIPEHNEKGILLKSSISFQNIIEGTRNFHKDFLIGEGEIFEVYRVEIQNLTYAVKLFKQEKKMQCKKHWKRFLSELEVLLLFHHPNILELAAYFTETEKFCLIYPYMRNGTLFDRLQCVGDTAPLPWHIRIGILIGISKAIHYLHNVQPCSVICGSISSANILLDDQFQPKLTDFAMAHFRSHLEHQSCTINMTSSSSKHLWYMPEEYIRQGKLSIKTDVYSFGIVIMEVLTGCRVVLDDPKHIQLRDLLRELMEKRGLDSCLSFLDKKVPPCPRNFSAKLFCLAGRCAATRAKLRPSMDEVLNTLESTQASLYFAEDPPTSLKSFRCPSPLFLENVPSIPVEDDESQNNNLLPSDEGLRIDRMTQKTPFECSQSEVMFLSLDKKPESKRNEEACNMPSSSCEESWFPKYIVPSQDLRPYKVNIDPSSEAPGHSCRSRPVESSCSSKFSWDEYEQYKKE

[5] = target: Isoform 4 of TRAF2 and NCK-interacting protein kinase ; TNIK ; Q9UKE5-4 (Homo sapiens, UniProt Q9UKE5); parameters: species or system mixed lysate of K562, MV4-11, THP-1, NCI-H1155
[6] = target: T2, Cyclin-dependent kinase-like 5 ; CDKL5 ; O76039 (Homo sapiens, UniProt O76039); parameters: species or system human cell line lysate
T2 sequence (O76039 1-960): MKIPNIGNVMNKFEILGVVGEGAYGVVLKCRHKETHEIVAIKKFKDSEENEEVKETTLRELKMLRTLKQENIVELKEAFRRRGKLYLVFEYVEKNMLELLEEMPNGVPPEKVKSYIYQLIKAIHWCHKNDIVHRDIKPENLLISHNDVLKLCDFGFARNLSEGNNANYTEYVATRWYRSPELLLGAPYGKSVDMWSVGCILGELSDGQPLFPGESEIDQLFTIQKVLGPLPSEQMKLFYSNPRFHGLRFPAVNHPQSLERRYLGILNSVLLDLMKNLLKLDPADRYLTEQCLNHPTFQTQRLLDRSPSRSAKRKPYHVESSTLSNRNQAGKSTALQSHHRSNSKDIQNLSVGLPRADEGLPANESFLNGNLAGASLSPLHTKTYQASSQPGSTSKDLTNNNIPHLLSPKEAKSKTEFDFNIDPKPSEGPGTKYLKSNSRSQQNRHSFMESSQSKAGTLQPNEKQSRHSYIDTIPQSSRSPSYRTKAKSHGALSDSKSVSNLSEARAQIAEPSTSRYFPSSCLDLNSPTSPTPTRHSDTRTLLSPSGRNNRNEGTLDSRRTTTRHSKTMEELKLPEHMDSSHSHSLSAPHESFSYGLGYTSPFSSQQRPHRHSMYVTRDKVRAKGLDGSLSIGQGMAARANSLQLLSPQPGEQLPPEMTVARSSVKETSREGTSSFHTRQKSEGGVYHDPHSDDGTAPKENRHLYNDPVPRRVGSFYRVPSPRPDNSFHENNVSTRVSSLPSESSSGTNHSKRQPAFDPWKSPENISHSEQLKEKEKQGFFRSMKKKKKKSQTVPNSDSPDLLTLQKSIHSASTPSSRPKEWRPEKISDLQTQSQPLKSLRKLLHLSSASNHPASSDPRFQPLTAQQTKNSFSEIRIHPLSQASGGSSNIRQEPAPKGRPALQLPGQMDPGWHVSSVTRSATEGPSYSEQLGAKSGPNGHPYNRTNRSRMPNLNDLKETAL

[7] = target: Cyclin-dependent kinase 13 ; CDK13 ; Q14004 (Homo sapiens, UniProt Q14004); parameters: species or system human cell line lysate
Chain of Cyclin-dependent kinase 13 ; CDK13 ; Q14004 (Q14004 whole entry, one chain of several): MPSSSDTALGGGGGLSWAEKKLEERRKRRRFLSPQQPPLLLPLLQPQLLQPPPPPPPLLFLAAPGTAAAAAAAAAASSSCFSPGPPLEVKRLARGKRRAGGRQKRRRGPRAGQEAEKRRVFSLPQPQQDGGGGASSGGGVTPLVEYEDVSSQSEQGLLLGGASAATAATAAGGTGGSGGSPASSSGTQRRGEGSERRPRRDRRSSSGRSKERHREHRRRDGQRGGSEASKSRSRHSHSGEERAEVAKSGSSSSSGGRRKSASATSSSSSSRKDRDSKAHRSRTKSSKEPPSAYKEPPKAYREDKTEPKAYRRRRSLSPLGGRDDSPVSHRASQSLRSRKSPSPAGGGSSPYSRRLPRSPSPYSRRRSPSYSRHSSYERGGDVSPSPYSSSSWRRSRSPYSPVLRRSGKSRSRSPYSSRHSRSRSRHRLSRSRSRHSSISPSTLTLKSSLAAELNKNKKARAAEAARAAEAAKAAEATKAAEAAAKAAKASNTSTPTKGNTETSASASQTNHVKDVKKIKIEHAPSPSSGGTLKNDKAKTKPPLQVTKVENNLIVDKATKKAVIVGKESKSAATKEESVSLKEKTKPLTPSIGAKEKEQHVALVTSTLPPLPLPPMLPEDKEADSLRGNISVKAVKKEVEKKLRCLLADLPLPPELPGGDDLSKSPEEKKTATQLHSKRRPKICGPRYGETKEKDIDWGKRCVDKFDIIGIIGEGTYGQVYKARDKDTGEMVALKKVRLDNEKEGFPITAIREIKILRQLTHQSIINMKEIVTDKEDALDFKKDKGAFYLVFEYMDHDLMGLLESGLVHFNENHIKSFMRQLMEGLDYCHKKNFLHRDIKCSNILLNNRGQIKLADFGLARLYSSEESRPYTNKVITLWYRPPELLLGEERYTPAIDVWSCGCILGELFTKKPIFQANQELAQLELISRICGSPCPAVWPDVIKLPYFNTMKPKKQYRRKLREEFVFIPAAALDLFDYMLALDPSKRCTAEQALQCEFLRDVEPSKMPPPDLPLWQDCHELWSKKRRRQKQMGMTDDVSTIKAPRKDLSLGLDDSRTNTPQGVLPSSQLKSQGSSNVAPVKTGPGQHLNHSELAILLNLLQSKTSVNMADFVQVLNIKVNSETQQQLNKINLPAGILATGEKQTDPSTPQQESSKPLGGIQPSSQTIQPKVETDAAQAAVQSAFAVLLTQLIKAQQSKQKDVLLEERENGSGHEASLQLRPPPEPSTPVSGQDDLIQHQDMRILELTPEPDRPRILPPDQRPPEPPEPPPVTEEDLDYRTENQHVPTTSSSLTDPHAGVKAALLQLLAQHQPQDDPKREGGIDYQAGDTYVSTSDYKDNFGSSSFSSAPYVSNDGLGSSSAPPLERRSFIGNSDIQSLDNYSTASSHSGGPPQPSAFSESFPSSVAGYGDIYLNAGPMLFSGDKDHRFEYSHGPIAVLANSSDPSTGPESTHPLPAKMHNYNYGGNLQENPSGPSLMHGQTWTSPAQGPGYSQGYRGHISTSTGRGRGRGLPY

[8] = target: Cyclin-dependent kinase 4 ; CDK4 ; P11802 (Homo sapiens, UniProt P11802); parameters: species or system human cell line lysate
Chain of Cyclin-dependent kinase 4 ; CDK4 ; P11802 (P11802 whole entry, one chain of several): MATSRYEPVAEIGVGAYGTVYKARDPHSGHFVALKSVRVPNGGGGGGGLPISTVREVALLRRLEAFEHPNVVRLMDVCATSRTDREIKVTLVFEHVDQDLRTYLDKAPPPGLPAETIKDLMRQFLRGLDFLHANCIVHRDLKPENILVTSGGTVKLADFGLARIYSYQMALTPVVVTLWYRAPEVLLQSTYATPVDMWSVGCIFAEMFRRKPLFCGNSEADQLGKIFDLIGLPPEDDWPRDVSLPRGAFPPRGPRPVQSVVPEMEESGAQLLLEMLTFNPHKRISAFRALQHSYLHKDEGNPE

[9] = target: Cyclin-dependent kinase 8 ; CDK8 ; P49336 (Homo sapiens, UniProt P49336); parameters: species or system human cell line lysate
Chain of Cyclin-dependent kinase 8 ; CDK8 ; P49336 (P49336 whole entry, one chain of several): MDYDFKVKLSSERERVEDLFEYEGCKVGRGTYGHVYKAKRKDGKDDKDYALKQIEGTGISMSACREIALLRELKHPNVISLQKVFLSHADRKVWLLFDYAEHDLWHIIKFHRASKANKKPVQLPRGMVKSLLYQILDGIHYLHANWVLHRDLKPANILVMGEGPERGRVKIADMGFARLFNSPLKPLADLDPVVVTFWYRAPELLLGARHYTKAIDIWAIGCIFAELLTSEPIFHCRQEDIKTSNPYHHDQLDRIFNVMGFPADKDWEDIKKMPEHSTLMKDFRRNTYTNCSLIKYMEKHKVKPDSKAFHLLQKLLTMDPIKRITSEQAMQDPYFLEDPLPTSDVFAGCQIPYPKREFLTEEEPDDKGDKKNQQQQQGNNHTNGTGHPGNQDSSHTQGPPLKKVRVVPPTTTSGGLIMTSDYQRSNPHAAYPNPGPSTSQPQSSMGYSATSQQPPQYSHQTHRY

[10] = target: Mast/stem cell growth factor receptor Kit ; KIT ; P10721 (Homo sapiens, UniProt P10721); parameters: species or system human cell line lysate
Chain of Mast/stem cell growth factor receptor Kit ; KIT ; P10721 (P10721 whole entry, one chain of several): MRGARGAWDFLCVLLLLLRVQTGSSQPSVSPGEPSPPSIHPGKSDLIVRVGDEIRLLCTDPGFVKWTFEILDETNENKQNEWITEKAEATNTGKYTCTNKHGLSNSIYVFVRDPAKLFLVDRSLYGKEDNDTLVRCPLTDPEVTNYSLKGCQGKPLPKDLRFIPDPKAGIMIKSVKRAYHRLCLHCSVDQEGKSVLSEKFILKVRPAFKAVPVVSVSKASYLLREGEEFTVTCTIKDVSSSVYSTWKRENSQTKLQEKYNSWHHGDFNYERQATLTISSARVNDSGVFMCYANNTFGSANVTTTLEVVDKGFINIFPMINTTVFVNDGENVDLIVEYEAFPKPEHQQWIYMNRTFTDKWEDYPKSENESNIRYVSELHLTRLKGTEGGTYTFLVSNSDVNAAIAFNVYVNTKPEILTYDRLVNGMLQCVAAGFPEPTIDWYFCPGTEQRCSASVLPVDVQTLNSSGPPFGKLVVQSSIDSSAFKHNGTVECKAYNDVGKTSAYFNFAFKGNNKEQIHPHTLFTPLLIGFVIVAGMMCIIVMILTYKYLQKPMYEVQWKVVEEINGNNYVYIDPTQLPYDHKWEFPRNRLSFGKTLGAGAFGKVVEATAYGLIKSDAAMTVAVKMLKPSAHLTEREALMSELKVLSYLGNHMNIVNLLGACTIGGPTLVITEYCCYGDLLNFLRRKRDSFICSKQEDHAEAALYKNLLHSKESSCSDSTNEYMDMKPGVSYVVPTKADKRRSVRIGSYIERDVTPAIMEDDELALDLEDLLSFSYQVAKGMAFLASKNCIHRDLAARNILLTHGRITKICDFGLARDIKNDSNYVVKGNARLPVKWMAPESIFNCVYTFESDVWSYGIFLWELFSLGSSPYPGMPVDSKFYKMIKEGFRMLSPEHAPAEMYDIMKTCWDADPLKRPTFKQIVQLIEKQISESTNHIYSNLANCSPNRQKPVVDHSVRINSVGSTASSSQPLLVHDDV

[11] = target: T1, Interleukin-1 receptor-associated kinase 3 ; IRAK3 ; Q9Y616; parameters: species or system human cell line lysate
[12] = read-out: BAY-1251152 (10 µM) / %Intensity relative to DMSO
[13] = read-out: BAY-1143572 (10 µM) / %Intensity relative to DMSO

remaining activity at 10 µM [1, 12] [%] | remaining activity at 10 µM [2, 12] [%] | remaining activity at 10 µM [3, 12] [%] | remaining activity at 10 µM [4, 12] [%] | remaining activity at 10 µM [5, 12] [%] | pIC50 [6] | pIC50 [7] | pIC50 [8] | pIC50 [9] | pIC50 [10] | pIC50 [11] | remaining activity at 10 µM [1, 13] [%] | remaining activity at 10 µM [2, 13] [%] | remaining activity at 10 µM [3, 13] [%] | remaining activity at 10 µM [4, 13] [%] | remaining activity at 10 µM [5, 13] [%] | SMILES
48.9 | 11.9 | 10.4 | 86.2 | 37.2 | < 5.00 | < 5.00 | < 5.00 | < 5.00 | < 5.00 | < 5.00 |  |  |  |  |  | COc1cc(F)ccc1-c1cc(Nc2cc(CS(C)(=N)=O)ccn2)ncc1F (stereo not shown) [BAY-1251152]
 |  |  |  |  | 5.47 | < 5.00 | < 5.00 | < 5.00 | 6.19 | 5.53 | 56 | 7.95 | 15.4 | 24 | 78.3 | COc1cc(F)ccc1-c1ncnc(Nc2cccc(C[S@](C)(=N)=O)c2)n1 [BAY-1143572]
